As usually defined, the MIC is the smallest concentration in the dilution series that meets the test's criterion for growth inhibition. Read a low MIC as inhibition by little substance. Usually MIC50 stands for the lowest concentration that inhibits either 50% of growth or 50% of the strains tested, depending on the study. A low value points to higher susceptibility. One may read the MIC90 as an inhibitory concentration at the 90% level, which refers to growth in some studies and to a panel of isolates in others. Higher therefore signals weaker potency.

From ChEMBL document CHEMBL1649149, “Sitafloxacin and garenoxacin may overcome the antibiotic resistance of Helicobacter pylori with gyrA mutation” (2009) come the findings set out here.

Molecules are shown by their SMILES. ≈ marks a conversion by molar mass, not a printed value.

What all share (format): functional
In test [1] the test system is Helicobacter pylori. Put plainly: Antibacterial activity against Helicobacter pylori harboring gyrA mutant gene.
In test [2] the test system is Helicobacter pylori. The test is described as follows: Antibacterial activity against Helicobacter pylori harboring gyrA mutant gene assessed as resistant isolates.
For test [3], the system named is Helicobacter pylori. Put plainly: Antibacterial activity against Helicobacter pylori harboring gyrA mutant gene by agar dilution method.
For test [4], the system named is Helicobacter pylori. The test is described as follows: Antibacterial activity against Helicobacter pylori infected in human assessed as bacterial eradication rate at 400 mg, po QD for 7 days.
For test [5], the system named is Helicobacter pylori. Put plainly: Antibacterial activity against Helicobacter pylori infected in human assessed as bacterial eradication rate at 1 g, po BID for 7 days.
Test [6] has as its system Helicobacter pylori. Put plainly: Antibacterial activity against Helicobacter pylori infected in human assessed as bacterial eradication rate at 20 mg, po BID for 7 days.
In test [7] the test system is Helicobacter pylori. Put plainly: Antibacterial activity against Helicobacter pylori harboring gyrA mutant gene infected in human assessed as bacterial eradication rate after 7 days.
For test [8], the system named is Helicobacter pylori. Put plainly: Antibacterial activity against Helicobacter pylori.
Test [9] deals with Helicobacter pylori. The test is described as follows: Antibacterial activity against Helicobacter pylori infected in human assessed as bacterial eradication rate at 20 mg, po BID for 10 days by 13C-urea breath test.
Test [10] concerns Helicobacter pylori. Put plainly: Antibacterial activity against GAT-susceptible Helicobacter pylori infected in human assessed as bacterial eradication rate for 7 days.

Consider `COc1c(N2CCNC(C)C2)c(F)cc2c(=O)c(C(=O)O)cn(C3CC3)c12` (configuration not stated) [GATIFLOXACIN], for which, in the test with Helicobacter pylori [1], the MIC is no less than 1 µg/mL. In addition, the Activity with Helicobacter pylori [2] turned out to be 47.9%; with Helicobacter pylori [4], 84.4%; in the test with Helicobacter pylori [5], 84.4%; in the test on Helicobacter pylori [6], 84.4%; in the test on Helicobacter pylori [7], 33.3%. The compound further registered an MIC50 against Helicobacter pylori [3] of 2 µg/mL (≈ 5.33 µM). The MIC90 against Helicobacter pylori [3] was found to be 4 µg/mL (≈ 10.7 µM).
For `N[C@@H]1CN(c2c(F)cc3c(=O)c(C(=O)O)cn([C@@H]4C[C@@H]4F)c3c2Cl)CC12CC2` [SITAFLOXACIN ANHYDROUS], in the test with Helicobacter pylori [8], the MIC90 was less than 0.008 µg/mL. In the test on Helicobacter pylori [3], this compound gave an MIC50 of 0.12 µg/mL (≈ 0.293 µM) and an MIC90 of 0.25 µg/mL (≈ 0.61 µM).
As for `CC1(C)S[C@@H]2[C@H](NC(=O)[C@H](N)c3ccc(O)cc3)C(=O)N2[C@H]1C(=O)O` [AMOXICILLIN], the Activity is recorded as 84.4% in the test with Helicobacter pylori [4], 84.4% in the test on Helicobacter pylori [5], 84.4% in the test on Helicobacter pylori [6] and 33.3% in the test with Helicobacter pylori [7].
On to `C[C@H]1NCc2cc(-c3ccc4c(=O)c(C(=O)O)cn(C5CC5)c4c3OC(F)F)ccc21` [GARENOXACIN], for which, in the test with Helicobacter pylori [3], the MIC50 is 0.5 µg/mL (≈ 1.17 µM) and the MIC90 was 1 µg/mL (≈ 2.35 µM).
With `COc1ccc2[nH]c([S+]([O-])Cc3ncc(C)c(OC)c3C)nc2c1` (configuration not stated) [OMEPRAZOLE], the Activity in the test on Helicobacter pylori [9] is 66%.
`COCCCOc1ccnc(C[S+]([O-])c2nc3ccccc3[nH]2)c1C` (configuration not stated) [RABEPRAZOLE]: the Activity in the test on Helicobacter pylori [4] is listed as 84.4%; in the test with Helicobacter pylori [5], 84.4%; with Helicobacter pylori [6] it was 84.4%; in the test with Helicobacter pylori [10] it was 100%.
